These results are taken from patent publication US20240066138A1, “ANTIBODY-DRUG CONJUGATES, PHARMACEUTICAL COMPOSITIONS, AND THERAPEUTIC APPLICATIONS” (priority 2020, published 2024).

Holding throughout (assay): Cell viability assay (CELLCOUNTING-LITE)
Holding throughout (format): cell-based

In one experiment the test system is A375. As to the method: (§1) Cancerous cells (5,000/well) were seeded in a culture media in a 96-well flat-bottom plate. A compound was prepared by a 3-fold serial dilution and added into each cell solutions. The cells were incubated for 4 or 5 days at 37° C. under 5% CO2. CELLCOUNTING-LITE was added to each well, mixed, and incubated for 10 min at room temperature. The solution in each cell was transferred to a 96-well white opaque plate for reading.

The next experiment concerns A431. How it is done:
as §1

The subject of the next experiment is ASPC-1. How it is done: as §1
The next experiment relates to H226. As to the method: as §1
The subject of the next experiment is H322. How it is done: as §1
The subject of a further experiment is HT29. As to the method: as §1
The subject of another experiment is Hut78. How it is done: as §1
Another experiment concerns Jurkat. How it is done:
as §1

The next experiment relates to KB. As to the method: as §1
For the next experiment, the system named is MCF7. As to the method: as §1
The next experiment deals with MV4; 11. As to the method: as §1
The next experiment relates to N87. As to the method:
as §1

In the next experiment the test system is RS4; 11. How it is done:
as §1

A further experiment concerns Raji. How it is done: as §1
The next experiment has as its system Ramos. As to the method: as §1
For a further experiment, the system named is Skov-3. How it is done: as §1
Another experiment has as its system T47D. As to the method: as §1
The mark [1] stands for this setting: N87 cells, incubated for 4 or 5 days, Table 1, read-out: IC50.

Molecules are shown by their SMILES. Read-outs that look alike come from different tables or passages of the source. Numbered stars: 1 amine (or outer) side, 2 acyl side, 3 side chain; on linkers, the order of the positions; unused ones are H or OH. Square brackets hold non-standard residues; d marks the D form. Peptide text beside a SMILES is read from it. * marks the point of attachment. Exatecan = CC[C@@]1(O)C(=O)OCc2c1cc1n(c2=O)Cc2c-1nc1cc(F)c(C)c3c1c2[C@@H](N*)CC3; Hexanoyl(6-maleimido) = O=C1C=CC(=O)N1CCCCCC(=O)*; NHCH2OCH2CO = O=C(COCN[*:1])[*:2]

Turning to `CC[C@@]1(O)C(=O)OCc2c1cc1n(c2=O)Cc2c-1nc1cc(F)c(C)cc1c2C=NOCC(C)CNC(=O)CO` (mixture of isomers) [Compound B3, N-(3-((((E/Z)—((S)-4-Ethyl-8-fluoro-4-hydroxy-9-methyl-3,14-dioxo-3,4,12,14-tetrahydro-1H-pyrano[3′,4′:6,7]indolizino[1,2-b]quinolin-11-yl)methylene)amino)oxy)-2-methyl-propyl)-2-hydroxyacetamide], the IC50 in the experiment with A375 (Homo sapiens, A-375) was 5.9 nM; with A431 (Homo sapiens, A-431), 10 nM; with ASPC-1 (Homo sapiens, ASPC1) it was 25 nM; in the experiment on H226 (Homo sapiens, NCI-H226), 401 nM; with H322 (NCI-H322), 3.9 nM; in the experiment on HT29 (Homo sapiens, HT-29), 13 nM. For the same compound, the IC50 in the experiment with Hut78 (Homo sapiens, HuT78) is 7 nM; with Jurkat (Homo sapiens, Jurkat) it was 1.2 nM; in the experiment with KB (Homo sapiens, KB), 18 nM; with MCF7 (Homo sapiens, MCF7), 21 nM; in the experiment on MV4; 11 (Homo sapiens, MV4-11) it was 10 nM; in the experiment on N87 it was 7 nM. Also, the IC50 with RS4; 11 (Homo sapiens, RS4-11) is 0.73 nM; in the experiment with Raji (Homo sapiens, Raji) it was 0.32 nM; in the experiment on Ramos (Homo sapiens, Ramos), 7.2 nM; with Skov-3 (Homo sapiens, SK-OV-3), 3.4 nM; with T47D (Homo sapiens, T47D), 1.3 nM.
As to `CC[C@@]1(O)C(=O)OCc2c1cc1n(c2=O)Cc2c-1nc1cc(F)c(C)cc1c2C=NOCCNC(=O)CO` [Compound B1, (S,E/Z)—N-(2-((((4-Ethyl-8-fluoro-4-hydroxy-9-methyl-3,14-dioxo-3,4,12,14-tetrahydro-1H-pyrano[3′,4′:6,7]indolizino[1,2-b]quinolin-11-yl)methylene)amino)oxy)ethyl)-2-hydroxyacetamide], the IC50 stood at 9.4 nM with A375 (Homo sapiens, A-375); 18 nM in the experiment with A431 (Homo sapiens, A-431); 54 nM in the experiment with ASPC-1 (Homo sapiens, ASPC1); 153 nM in the experiment with H226 (Homo sapiens, NCI-H226); 12 nM in the experiment on H322 (NCI-H322); 28 nM in the experiment on HT29 (Homo sapiens, HT-29). In addition, the IC50 with Hut78 (Homo sapiens, HuT78) came to 11 nM; with Jurkat (Homo sapiens, Jurkat), 3 nM; in the experiment on KB (Homo sapiens, KB) it was 31 nM; with MCF7 (Homo sapiens, MCF7) it was 19 nM; in the experiment on MV4; 11 (Homo sapiens, MV4-11), 18 nM; in the experiment with N87 it was 11 nM. In addition, the IC50 in the experiment with RS4; 11 (Homo sapiens, RS4-11) came out at 1.1 nM; with Raji (Homo sapiens, Raji) it was 0.45 nM; in the experiment on Ramos (Homo sapiens, Ramos), 7.8 nM; with Skov-3 (Homo sapiens, SK-OV-3), 9.8 nM; in the experiment with T47D (Homo sapiens, T47D), 2.8 nM.
Regarding `CC[C@@]1(O)C(=O)OCc2c1cc1n(c2=O)Cc2c-1nc1cc(F)c(C)cc1c2C=NOCCCNC(=O)CO` [Compound B2, (S,E/Z)—N-(3-((((4-ethyl-8-fluoro-4-hydroxy-9-methyl-3,14-dioxo-3,4,12,14-tetrahydro-1H-pyrano[3′,4′:6,7]indolizino[1,2-b]quinolin-11-yl)methylene)amino)oxy)propyl)-2-hydroxyacetamide], the IC50 in the experiment on A375 (Homo sapiens, A-375, A375 cells, incubated for 4 or 5 days, Table 1, read-out: IC50) is 6.9 nM; in the experiment on A431 (Homo sapiens, A-431, A431 cells, incubated for 4 or 5 days, Table 1, read-out: IC50), 9.8 nM; in the experiment on ASPC-1 (Homo sapiens, ASPC1, ASPC-1 cells, incubated for 4 or 5 days, Table 1, read-out: IC50) it was 40 nM; in the experiment with H226 (Homo sapiens, NCI-H226, H226 cells, incubated for 4 or 5 days, Table 1, read-out: IC50), 113 nM; with H322 (NCI-H322, H322 cells, incubated for 4 or 5 days, Table 1, read-out: IC50), 12 nM; with HT29 (Homo sapiens, HT-29, HT29 cells, incubated for 4 or 5 days, Table 1, read-out: IC50), 16 nM. In addition, the IC50 in the experiment with Hut78 (Homo sapiens, Hut78 cells, incubated for 4 or 5 days, Table 1, read-out: IC50) was 9.1 nM; with Jurkat (Homo sapiens, Jurkat cells, incubated for 4 or 5 days, Table 1, read-out: IC50), 2.1 nM; in the experiment with KB (Homo sapiens, KB cells, incubated for 4 or 5 days, Table 1, read-out: IC50) it was 19 nM; in the experiment with MCF7 (Homo sapiens, MCF7 cells, incubated for 4 or 5 days, Table 1, read-out: IC50), 9.2 nM; with MV4; 11 (Homo sapiens, MV4, 11 cells, incubated for 4 or 5 days, Table 1, read-out: IC50), 14 nM; in the experiment on N87 (setting [1]) it was 9.1 nM. The IC50 in the experiment with RS4; 11 (Homo sapiens, RS4, 11 cells, incubated for 4 or 5 days, Table 1, read-out: IC50) amounted to 0.88 nM; in the experiment with Raji (Homo sapiens, Raji cells, incubated for 4 or 5 days, Table 1, read-out: IC50), 0.58 nM; in the experiment with Ramos (Homo sapiens, Ramos cells, incubated for 4 or 5 days, Table 1, read-out: IC50), 6.6 nM; with Skov-3 (Homo sapiens, SK-OV-3, Skov-3 cells, incubated for 4 or 5 days, Table 1, read-out: IC50), 11 nM; in the experiment with T47D (Homo sapiens, T47D cells, incubated for 4 or 5 days, Table 1, read-out: IC50) it was 2.4 nM.
On to `CC[C@@]1(O)C(=O)OCc2c1cc1n(c2=O)Cc2c-1nc1cc(F)c(C)c3c1c2[C@@H](NC(=O)COCNC(=O)CNC(=O)[C@H](Cc1ccccc1)NC(=O)CNC(=O)CNC(=O)CCCCCN1C(=O)C=CC1=O)CC3` [Deruxtecan, reference compound] ({Hexanoyl(6-maleimido)}-GGFG[NHCH2OCH2CO]-Exatecan), for which the IC50 in the experiment on A375 (A375 cells, incubated for 4 or 5 days, Table 1, read-out: IC50) was found to be 3.6 nM; with A431 (A431 cells, incubated for 4 or 5 days, Table 1, read-out: IC50), 7.7 nM; in the experiment on ASPC-1 (ASPC-1 cells, incubated for 4 or 5 days, Table 1, read-out: IC50), 29 nM; in the experiment on H226 (H226 cells, incubated for 4 or 5 days, Table 1, read-out: IC50) it was 388 nM; in the experiment on H322 (H322 cells, incubated for 4 or 5 days, Table 1, read-out: IC50), 8.2 nM; with HT29 (HT29 cells, incubated for 4 or 5 days, Table 1, read-out: IC50), 13 nM. Further, the IC50 in the experiment with Hut78 (Hut78 cells, incubated for 4 or 5 days, Table 1, read-out: IC50) worked out at 9.9 nM; in the experiment on Jurkat (Jurkat cells, incubated for 4 or 5 days, Table 1, read-out: IC50), 2.3 nM; in the experiment on KB (KB cells, incubated for 4 or 5 days, Table 1, read-out: IC50), 7.2 nM; in the experiment on MCF7 (MCF7 cells, incubated for 4 or 5 days, Table 1, read-out: IC50), 5.7 nM; in the experiment with MV4; 11 (MV4, 11 cells, incubated for 4 or 5 days, Table 1, read-out: IC50), 6.9 nM; with N87 (setting [1]), 9.9 nM. In addition, the IC50 in the experiment with RS4; 11 (RS4, 11 cells, incubated for 4 or 5 days, Table 1, read-out: IC50) was found to be 0.65 nM; in the experiment on Raji (Raji cells, incubated for 4 or 5 days, Table 1, read-out: IC50), 0.42 nM; in the experiment on Ramos (Ramos cells, incubated for 4 or 5 days, Table 1, read-out: IC50), 3.8 nM; with Skov-3 (Skov-3 cells, incubated for 4 or 5 days, Table 1, read-out: IC50) it was 9.8 nM; in the experiment with T47D (T47D cells, incubated for 4 or 5 days, Table 1, read-out: IC50), 1.9 nM.
